# Like-named read-outs stand apart in the source and are kept apart here.
# Legend:
# S. aureus = experiment: Serum shift assays (MIC with and without 50% human serum); format: cell-based, Staphylococcus aureus; details: Staphylococcus aureus
# Experimental: Serum shift assays: To assess the role of protein binding on compound susceptibility, MIC determinations were performed in triplicate in the presence and absence of 50% human serum. Serial threefold dilutions of 2× compound were generated in MHB and aliquoted onto 96 well plates with a DMSO limit of 0.5%. Bacteria were adjusted to 1*10^8 CFUs/mL in MHB, then further diluted 1:100 in MHB and 100% heat deactivated filter sterilized pooled human serum. Fifty microliters were added to each well of the corresponding plates, and the plates were incubated at 37° C. for ˜20 h. The lowest concentration causing ≥90% growth inhibition was recorded as the MIC.
# S. aureus (ATCC 29213) [1] = experiment: MBC determinations (with MIC); format: cell-based; details: Staphylococcus aureus, ATCC29213, S. aureus (ATCC 29213)
# Experimental: Maximum DMSO concentrations were 0.5%. […] Each experiment's inoculum was serially diluted and plated on TSA to count competent cells. Cultures were incubated at 37° C. for at least 20 h and plated on TSA for CFU determination.
# MIC/MBC: Measurements of minimum bactericidal concentrations (MBCs) were done with the S. aureus strain ATCC 29213 (Table 5).
# S. aureus (ATCC 29213) [2] = format: cell-based, Staphylococcus aureus; details: 8× the MIC
# Experimental: Resistance frequency rates determination: The spontaneous resistance frequency rates to test compounds was determined according to published methods. Agar selection plates were made by adding compound from DMSO stocks into molten Mueller Hinton agar in a 55° C. water bath. […] The final DMSO concentration was <0.1% per plate. Plates were dried in a sterile hood for 30 minutes prior to overnight storage at 4° C., and pre-warmed in the 37° C. incubator for 1 hour prior to assay.
# A fresh overnight culture was diluted 1:50 in MHB and grown at 37° C. with shaking (150 rpm) until reaching an OD600 of 0.4 correlating to ˜2×10^9 CFUs/mL. Approximately 3 mL for a total of 6*10^9 CFUs were distributed onto 4 plates for each compound. Plates were incubated at 37° C. for 72 h prior to counting of colonies. The starting inoculum was also serially diluted and plated to quantify initial bacterial load. The resistance frequency was determined as the number of compound-resistant colonies divided by the total colonies plated.
# Resistance frequency rates: The propensity for S. aureus to develop resistance to MetRS inhibitors was also studied (Table 6).
# [3] = tested on: E. faecium VRE (ATCC 51559); experiment: MIC susceptibility testing; format: cell-based, Enterococcus faecium; details: for MIC: Enterococcus faecium
# How it was run: (§1)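 CLSI broth microdilution in triplicate, 5×10^5 CFU/mL final, ≤0.5% DMSO; MHB for S. aureus, CA-MHB for E. coli and E. faecium, CA-MHB plus 3% laked horse blood for S. pyogenes (5% CO2).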
# [4] = tested on: G. lamblia (ATCC GL50803); experiment: G. lamblia growth inhibition; format: cell-based; details: Giardia duodenalis, read-out: (K) G. lamblia (ATCC GL50803) EC50
# MetRS (C. parvum) = MetRS (C. parvum) (Cryptosporidium parvum, UniProt Q5CVN0); experiment: MetRS (C. parvum) enzyme inhibition; format: biochemical; details: read-out: (C) MetRS (C. parvum) IC50
# MetRS (C. parvum), sequence (Q5CVN0 entry or part of it): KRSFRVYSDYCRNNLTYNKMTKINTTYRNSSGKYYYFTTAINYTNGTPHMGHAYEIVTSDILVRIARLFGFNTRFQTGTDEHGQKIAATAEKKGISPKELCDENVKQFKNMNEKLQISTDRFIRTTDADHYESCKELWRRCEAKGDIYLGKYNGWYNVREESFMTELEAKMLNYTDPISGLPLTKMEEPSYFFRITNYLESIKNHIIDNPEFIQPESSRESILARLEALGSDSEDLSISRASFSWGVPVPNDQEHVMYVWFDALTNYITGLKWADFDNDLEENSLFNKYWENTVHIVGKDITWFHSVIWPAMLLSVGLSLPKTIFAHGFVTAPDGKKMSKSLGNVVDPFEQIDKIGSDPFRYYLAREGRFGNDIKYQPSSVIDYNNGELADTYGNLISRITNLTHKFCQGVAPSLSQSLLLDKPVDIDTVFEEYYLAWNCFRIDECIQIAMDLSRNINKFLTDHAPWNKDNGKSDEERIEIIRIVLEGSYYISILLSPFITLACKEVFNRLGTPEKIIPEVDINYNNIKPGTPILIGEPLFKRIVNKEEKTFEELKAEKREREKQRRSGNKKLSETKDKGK
# [5] = tested on: S. aureus MSSA (ATCC 29213); experiment: MIC susceptibility testing; format: cell-based, Staphylococcus aureus; details: for MIC: Staphylococcus aureus
# [6] = tested on: S. aureus MRSA (ATCC 33591); experiment: MIC susceptibility testing; format: cell-based, Staphylococcus aureus; details: Staphylococcus aureus, MRSA ATCC33591; read-out: (G) MRSA (ATCC33591) MIC
# How it was run: as §1
# T. cruzi = T. cruzi growth inhibition; format: cell-based, Trypanosoma cruzi; details: read-out: (E) T. cruzi EC50
# C. parvum = C. parvum growth inhibition; format: cell-based, Cryptosporidium parvum; details: read-out: (J) C. parvum EC50
# [7] = Cytotoxicity testing on mammalian cells (AlamarBlue, 48 hours); format: cell-based; details: human
# Experimental: Cytotoxicity testing on mammalian cells: Compounds were assayed for cytotoxicity against CRL-8155 (human lymphoblasts) and HepG2 cells (human hepatocellular carcinoma). Cells were exposed to serial dilutions of compounds for 48 hours and toxicity was quantified using AlamarBlue (ThermoFisher Scientific, Waltham, Mass.). Assays were performed in quadruplicate and EC50 values were calculated with non-linear regression methods using software by the Collaborative Drug Database (Burlingame, Calif. www.collaborativedrug.com)
# [8] = biological target: recombinant S. aureus MetRS enzyme (Staphylococcus aureus, UniProt A0A0H2XID2); experiment: Inhibition of SaMetRS, ATP depletion assay; format: biochemical; details: recombinant enzyme; lower limit of detection 0.025 μM; read-out: MetRS S. aureus (enzyme) IC50
# recombinant S. aureus MetRS enzyme, sequence (A0A0H2XID2 2-657): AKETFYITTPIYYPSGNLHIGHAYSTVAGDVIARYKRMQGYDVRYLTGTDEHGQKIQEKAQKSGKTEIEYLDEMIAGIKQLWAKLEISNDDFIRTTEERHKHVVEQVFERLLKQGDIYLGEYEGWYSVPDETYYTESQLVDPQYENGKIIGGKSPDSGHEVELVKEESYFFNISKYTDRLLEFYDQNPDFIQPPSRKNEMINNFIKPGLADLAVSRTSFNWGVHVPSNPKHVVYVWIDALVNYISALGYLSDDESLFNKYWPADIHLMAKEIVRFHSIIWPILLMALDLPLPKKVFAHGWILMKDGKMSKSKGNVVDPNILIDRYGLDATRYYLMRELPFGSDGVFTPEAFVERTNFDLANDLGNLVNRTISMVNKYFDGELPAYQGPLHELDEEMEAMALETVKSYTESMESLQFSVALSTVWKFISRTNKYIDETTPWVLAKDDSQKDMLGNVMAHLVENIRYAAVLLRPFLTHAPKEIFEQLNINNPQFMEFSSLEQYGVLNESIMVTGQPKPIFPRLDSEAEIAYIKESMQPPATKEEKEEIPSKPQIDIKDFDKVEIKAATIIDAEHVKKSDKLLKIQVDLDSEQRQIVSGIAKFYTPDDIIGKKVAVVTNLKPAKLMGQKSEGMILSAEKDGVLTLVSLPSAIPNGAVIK
# How it was run: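 N-terminal 6-His S. aureus MetRS (25 nM) was pre-incubated 15 min at room temperature with compound, 400 μg/mL E. coli tRNA and pyrophosphatase in HEPES-KOH pH 7.9, 2% DMSO. Reaction started with 150 nM ATP plus 20 μM L-methionine, ran 120 min; remaining ATP read by Kinase-Glo luminescence, IC50 by sigmoidal nonlinear regression.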
# E. faecium (ATCC 19434) = experiment: MIC susceptibility testing; format: cell-based; details: Enterococcus faecium, ATCC19434; read-out: E. faecium (ATCC 19434) MIC
# Description: (§2) Media and culture conditions. Mueller Hinton broth (MHB), cation adjusted Mueller Hinton broth (CA-MHB), and Brain Heart Infusion broth (BHI) were purchased from Becton Dickinson (Franklin Lakes, N.J.). Tryptic soy agar (TSA) plates, TSA with 5% sheep blood plates, and CA-MHB with 3% laked horse blood were purchased from Remel (San Diego, Calif.). MHB was used to assay all Staphylococcus aureus strains. CA-MHB was used for Staphylococcus epidermidis, Enterococcus faecalis, Enterococcus faecium, Escherichia coli, and Pseudomonas aeruginosa. CA-MHB supplemented with 3% laked horse blood was used for Streptococcus pneumoniae and Streptococcus pyogenes. Staphylococcus, Enterococcus, Escherichia, and Pseudomonas strains were cultured at 37° C. with ambient air. Streptococcus strains were cultured in 37° C. with 5% CO2. Separate conditions for radiolabeled precursor uptake assays are described below.
# (§3) Susceptibility testing: Minimum inhibitory concentration (MIC) determinations were performed in triplicate in 96-well round bottom microtiter plates (Corning, Corning N.Y.) as described by the Clinical and Laboratory Standards Institute (CLSI). Serial two-fold dilutions of compounds were added to plates in 50 μL volumes. An additional 50 μL of media containing bacterial cells (1×10^6 CFUs/mL) was then added to each well. Maximum DMSO concentrations were 0.5%. Plates were incubated at 37° C. for at least 18 h before reading the susceptibility result by optical absorbance (OD600) using a BioTek ELx800. The lowest concentration causing ≥90% growth inhibition compared to the untreated control was recorded as the MIC (and also corresponded to the visual MIC). MICs were measured at least twice and the higher value (if different) was recorded herein.
# E. faecalis (ATCC 29212) = experiment: MIC susceptibility testing; format: cell-based; details: Enterococcus faecalis, ATCC29212; read-out: E. faecalis (ATCC 29212) MIC
# Description: as §2, §3
# [9] = tested on: S. aureus MRSA (ATCC 43300); experiment: MIC susceptibility testing; format: cell-based; details: Staphylococcus aureus; read-out: S. aureus MRSA (ATCC 43300) MIC
# Description: as §2, §3
structure (smiles),measurement,setting,value
"CO[C@@H]1[C@@H](OC(N)=O)[C@@H](O)[C@H](Oc2ccc3c(O)c(NC(=O)c4ccc(O)c(CC=C(C)C)c4)c(=O)oc3c2C)OC1(C)C [NOV, novobiocin]",MIC,"S. aureus; 50% human serum, read-out: Avg MIC ± SEM (+50% serum)",12.9 ± 1.97 µg/mL
same,MIC,"S. aureus; no serum, read-out: Avg MIC ± SEM (no serum)",0.081 ± 0.02 µg/mL
same,MIC,"S. aureus (ATCC 29213) [1]; MBC experiment (Table 5), read-out: MIC",0.156 µg/mL
same,MBC,"S. aureus (ATCC 29213) [1]; concentration killing 99.9% of inoculum, read-out: MBC",5 µg/mL
same,Resistance frequency (Expt. 2),S. aureus (ATCC 29213) [2]; 72 h,1.58 × 10^−8
same,Resistance frequency (average or greater #),S. aureus (ATCC 29213) [2]; two independent experiments,1.58 × 10^−8
"COc1ccc(-c2cccc3c2CN(Cc2nc4nc(Cl)ccc4[nH]2)C3=O)c(Cl)c1 [Compound 2230, 2-((5-chloro-1H-imidazo[4,5-b]pyridin-2-yl)methyl)-4-(2-chloro-4-methoxyphenyl)isoindolin-1-one]",(I) E. faecium (ATCC 51559) MIC,[3]; E. faecium ATCC 51559,0.134 µg/mL
same,MIC,"[3]; E. faecium ATCC 51559, read-out: (I) E. faecium (ATCC 51559) MIC",0.0765 µg/mL
same,EC50,[4],10 nM
same,IC50,MetRS (C. parvum),< 40 nM
same,(F) S. aureus (ATCC 29213) MIC,[5]; S. aureus ATCC 29213,0.304 µg/mL
same,MIC,"[5]; S. aureus ATCC 29213, read-out: (F) S. aureus (ATCC 29213) MIC",0.393 µg/mL
same,MIC,[6],0.165 µg/mL
same,EC50,T. cruzi; Trypanosoma cruzi,28 nM
same,EC50,T. cruzi,39.6 nM
same,EC50,C. parvum; Cryptosporidium parvum,211 nM
same,EC50,C. parvum,196 nM
"Oc1cc(NCCCNCc2cc(Cl)cc(Cl)c2)nc2ccccc12 [Compound 1312, 2-((3-((3,5-dichlorobenzyl)amino)propyl)amino)quinolin-4(1H)-one]",MIC,[3]; read-out: E. faecium VRE (ATCC 51559) MIC,0.156 µg/mL
same,CC50 at 48 h,"[7]; CRL-8155 cells (human lymphoblasts), read-out: Mamm. cells (CRL8155) CC50",> 7.5 µg/mL
same,CC50 at 48 h,"[7]; HepG2 cells (human hepatocellular carcinoma), read-out: Mamm. cells (HepG2) CC50",> 7.5 µg/mL
same,IC50,[8],< 25 nM
same,MIC,"[5]; 18 h, read-out: S. aureus MSSA (ATCC 29213) MIC",2.5 µg/mL
same,MIC,E. faecium (ATCC 19434),0.156 µg/mL
same,MIC,E. faecalis (ATCC 29212),0.313 µg/mL
same,MIC,[9],5 µg/mL
